This series in a line: gradient 5% acetonitrile 3 min, to 50% in 2 min, to 85% in 15 min, held 3 min, 100 µL/min. As to conditions: column: Zorbax Extend-C18 2.1 x 50 mm; eluents: water / acetonitrile, 0.1% formic acid. Summed up: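 Pure standards were run in mixtures of ~100 molecules by HPLC coupled to a quadrupole time-of-flight mass spectrometer. The column was a Zorbax Extend-C18 (2.1 × 50 mm, 1.8 μm) at 100 μL/min, with water and acetonitrile each containing 0.1% formic acid, in positive and negative ionization mode. Dead and dwell volumes were 40 μL and 900 μL. Retention time was taken from computationally picked adduct peaks, each manually inspected, with data collected over 3 months.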
The molecule `CCn1cc(-c2nc(C)c(C(=O)NCc3ccccc3F)s2)c2cccnc21` showed an RP-LC retention time of 1090 s.

Molecule `CCc1ccc(C(=O)N2CCN(C(=O)c3nnn4c3COC(c3ccc(C)cc3)C4)CC2)cc1` (centres undefined) came in with an RP-LC retention time of 1000 s.

In turn, `Cn1c(=O)n(CC(=O)N2CCOCC2)c(=O)c2cnc(-c3ccc(Cl)cc3)nc21` gave an RP-LC retention time of 859 s.

`CCN1CCN(S(=O)(=O)c2ccc(Cl)c(-c3nnc(-c4ccc(OC)cc4)o3)c2)CC1` came in with an RP-LC retention time of 677 s.

On to `O=C(Nc1cnc(-c2ccccc2)nc1)c1ccc(Br)o1`, for which the RP-LC retention time was found to be 979 s.

With `Cc1ccc(Cn2nc3c(S(=O)(=O)N4CCCCCC4)cccn3c2=O)cc1`, the RP-LC retention time is 1000 s.

As to `CCC(C)N(CC(=O)N1CCc2sccc2C1COc1cccc(F)c1)C(C)=O` (centres undefined), the RP-LC retention time is 754 s.

For `CCc1nn2c(CNC(=O)c3ccccc3Br)c(C)nc2s1`, the RP-LC retention time came out at 636 s.

`O=C1CC(c2nc(-c3ccccn3)no2)CN1c1ccc2c(c1)OCCO2` (centres undefined) gave an RP-LC retention time of 715 s.

Take `CN(C)c1ccc(-c2noc(CCC(=O)N3CCC4(CC3)OCCO4)n2)cc1`: the RP-LC retention time is 789 s.

For `Cc1ccc(S(=O)(=O)N2CCCC2c2nc(-c3cccc(Cl)c3)no2)cc1F` (centres undefined), the RP-LC retention time was determined as 1280 s.

The molecule `COc1ccc(-c2nnc(COc3ccc(NC(=O)c4ccccn4)cc3)o2)cc1` returned an RP-LC retention time of 930 s.

In turn, `CCc1nc2c(c(=O)n1CC(=O)NCc1cccc(C)c1)CN(Cc1ccccc1)CC2` came in with an RP-LC retention time of 661 s.

For the molecule `COCCN1C(=O)c2ccccc2C(C(=O)Nc2ccc3c(c2)OCO3)C1c1ccc(F)cc1` (centres undefined), the RP-LC retention time came to 875 s.

`O=C(Cc1nnc(-c2ccccc2)o1)NCc1ccncc1`: the RP-LC retention time worked out at 566 s.

`Cc1ccc(NC(=O)N2CCc3nc(CNC(=O)C4CCC4)n(C)c3C2)cc1` returned an RP-LC retention time of 598 s.

The molecule `Cn1cnc2cc(CNC(=O)c3cccs3)ccc21` gave an RP-LC retention time of 571 s.

The molecule `COc1ccc(-c2ncc3c(n2)CCN(C(=O)Nc2c(F)cccc2F)C3)cc1` registered an RP-LC retention time of 658 s.

Turning to `O=C(COc1ccccc1F)Nc1nnc(-c2cc(Cl)sc2Cl)o1`, the RP-LC retention time worked out at 867 s.

In the case of `CCOc1ccc(NC(=O)NCCC2CCN(S(=O)(=O)c3ccccc3)CC2)cc1`, the RP-LC retention time worked out at 836 s.

`Cc1ccc(C(=O)Nc2cnn(-c3ncncc3N3CCC(C)CC3)c2)s1`: the RP-LC retention time turned out to be 909 s.

In the case of `Cc1ccc2ncn(C3CCN(C(=O)Nc4ccc(F)cc4F)CC3)c(=O)c2c1`, the RP-LC retention time was 770 s.

Take `O=C(c1cccs1)N1CCc2cc(-c3ccno3)ccc21`: the RP-LC retention time was 887 s.

Turning to `Cc1ccc(C)c(NC(=O)c2cc3c(=O)n(CC(C)C)ccc3n2C)c1`, the RP-LC retention time was 884 s.

As to `CC(C)N1C(=O)c2cccnc2Sc2cc(NC(=O)c3ccccc3Cl)ccc21`, the RP-LC retention time turned out to be 871 s.

Regarding `Cc1cccc(Cn2nc(-c3nc(-c4ccc(F)cc4)no3)ccc2=O)c1`, the RP-LC retention time was 1160 s.

Regarding `CCOc1ccc(CN2C(=O)C3(CCOCC3)CC2c2nnnn2C(C)(C)C)cc1OC` (centres undefined), the RP-LC retention time came out at 754 s.

`CCN1CCN(C(=O)CS(=O)Cc2cnn(-c3ccccc3)c2-n2cccc2)CC1` (centres undefined) returned an RP-LC retention time of 614 s.

Regarding `CN1CCCc2cc(C(CNC(=O)C(=O)NCCN3CCOCC3)N3CCCCC3)ccc21` (centres undefined), the RP-LC retention time is 558 s.

`O=c1ccc(-c2ccc3c(c2)OCO3)nn1CCc1nc(-c2cccc(Cl)c2)no1` registered an RP-LC retention time of 1010 s.

On to `CCc1ccc(CNC(=O)c2cc3c(=O)n(C)ccc3n2C)cc1`, for which the RP-LC retention time worked out at 746 s.

Turning to `CCc1cc(=O)n(CC(=O)Nc2cc(OC)cc(OC)c2)c(N2CCOCC2)n1`, the RP-LC retention time is 738 s.

Turning to `CCCNC(=O)C1CCN(c2ccc(SCC(=O)Nc3ccc(OCC)cc3)nn2)CC1`, the RP-LC retention time was found to be 639 s.

Regarding `O=C(c1ccc(Br)cc1)N1CCN(c2cc(-c3ccccc3)[nH]n2)CC1`, the RP-LC retention time is 849 s.

`CCCn1cc(C(=O)Nc2ccc(OC)c(Cl)c2)c(=O)c2ccc(C)nc21` had an RP-LC retention time of 1210 s.

In turn, `COc1ccc(-c2csc(NC(=O)c3ccc([N+](=O)[O-])cc3)n2)cc1` displayed an RP-LC retention time of 1070 s.

Molecule `O=C(CN1CCN(Cc2ccccc2)C1=O)NCc1ccccc1Br` gave an RP-LC retention time of 824 s.

Consider `Cc1cc(N2CCOCC2)nc(N2CCN(C(=O)c3cccc(Br)c3)CC2)n1`, for which the RP-LC retention time was determined as 636 s.

Regarding `COc1ccc(-c2nc3cnc(Br)cn3c2Nc2ccc(OC)c(OC)c2)cc1`, the RP-LC retention time amounted to 852 s.

Take `CCCN1C(=O)c2cc(S(=O)(=O)NCC(C)C)ccc2Oc2cccnc21`: the RP-LC retention time was 1050 s.

Consider `Cn1nc(C(=O)N2CCCC(c3nnc(C(F)(F)F)o3)C2)ccc1=O` (centres undefined), for which the RP-LC retention time was found to be 638 s.

Molecule `CCC(=O)N1CCc2c(C(=O)N3CCN(c4ccc(OC)cc4)CC3)cccc21` gave an RP-LC retention time of 778 s.

On to `O=C(Cn1nc2c(N3CCCCCC3)nccn2c1=O)Nc1cccc(C(F)(F)F)c1`, for which the RP-LC retention time stood at 805 s.

`COC(=O)c1c(C)[nH]c(C(=O)N2CCC(CC(=O)NCc3cccc(Cl)c3)CC2)c1C` showed an RP-LC retention time of 770 s.

Molecule `O=C(NCCN1CCOCC1)C1CCc2sc(C(=O)N3CCCCC3)cc2C1` (centres undefined) registered an RP-LC retention time of 563 s.

On to `COc1cncc(C(=O)Nc2cc(F)cc(F)c2)c1`, for which the RP-LC retention time stood at 797 s.

Regarding `O=C(NCc1ccccc1)N1CCN(Cc2nc3ccc(Cl)cc3o2)CC1`, the RP-LC retention time amounted to 723 s.

As to `O=C(O)c1nnn(-c2cc(F)cc(F)c2)c1-c1ccccn1`, the RP-LC retention time amounted to 680 s.

Regarding `COc1ccc(-c2noc(-c3nn(-c4ccc(C)c(C)c4)ccc3=O)n2)cc1`, the RP-LC retention time was determined as 923 s.

As to `COc1ccccc1C(=O)Nc1cc(-c2ccccn2)no1`, the RP-LC retention time amounted to 980 s.

For `O=C(NCCc1ccc(Cl)cc1)C1CCN(C(=O)C2Sc3ccccc3NC2=O)CC1` (centres undefined), the RP-LC retention time stood at 774 s.

`CC(NC(=O)c1cc(F)cc(F)c1)C(=O)Nc1nc2ccccc2[nH]1` (centres undefined) came in with an RP-LC retention time of 655 s.

Consider `COC(=O)c1ccc(Cl)cc1NC(=O)N1CCC2(CC1)NC(=O)c1ccccc1O2`, for which the RP-LC retention time turned out to be 1000 s.

`CC1CCCN(CCCNC(=O)C2CCN(S(=O)(=O)c3ccc4c(c3)sc(=O)n4C)CC2)C1` (centres undefined) registered an RP-LC retention time of 612 s.

In turn, `CCOC(=O)CSc1nnc(NC(=O)C2CC(=O)N(c3ccc(F)cc3)C2)s1` (centres undefined) showed an RP-LC retention time of 712 s.

`Cc1nc(C(=O)N2CCC[C@H]2Cc2nnc(-c3ccccc3)o2)c(-c2ccccc2F)s1` showed an RP-LC retention time of 1050 s.

`COc1ccc(CCNC(=O)C2=C3CCCN3c3ccccc3S2(=O)=O)cc1OC` showed an RP-LC retention time of 765 s.

Turning to `CCCCOc1ccc(NC(=O)Nc2ccc3c(c2)CN(C(=O)CC)CC3)cc1`, the RP-LC retention time was found to be 861 s.

On to `COc1ccc2c(c1)C1CC(C)(O2)N(C)C(=O)C1S(=O)(=O)c1ccc(C(C)C)cc1` (centres undefined), for which the RP-LC retention time came out at 1160 s.

As to `COc1ccc(Cc2nc3ccccc3n2CC(N)=O)cc1OC`, the RP-LC retention time is 566 s.

`COc1cccc(S(=O)(=O)N2CCc3c(c(-c4nnc(-c5ccc(F)cc5)o4)nn3C)C2)c1` gave an RP-LC retention time of 942 s.

Consider `O=C(NCc1cccnc1-c1ccc(F)cc1)c1cc(F)ccc1Cl`, for which the RP-LC retention time was determined as 700 s.

As to `CCc1cc(C(=O)Nc2ccc(C#N)cc2)nc2ccnn12`, the RP-LC retention time was found to be 965 s.

The molecule `CN(C)[C@@H]1CN(C(=O)c2cccc(Cl)c2)C[C@H]1CO` returned an RP-LC retention time of 559 s.

In the case of `Cc1sc2ccn(Cc3ccc(F)cc3)c(=O)c2c1C(=O)NCc1cccnc1`, the RP-LC retention time was determined as 632 s.

On to `O=C(c1ccccn1)N1CCN(C(=O)c2nnn3c2COC(c2ccccc2)C3)CC1` (centres undefined), for which the RP-LC retention time came to 717 s.

Turning to `CCn1nccc1C(=O)Nc1nc(-c2ccc(OC)cc2OC)cs1`, the RP-LC retention time was 926 s.

`O=C(Cn1cc(-c2ccc(F)cc2)oc1=O)N1CCN(c2cccc(Cl)c2)CC1` displayed an RP-LC retention time of 972 s.

In turn, `Cc1ccccc1N1CCN(S(=O)(=O)c2cc3n(c2)CCCN(C)C3=O)CC1` displayed an RP-LC retention time of 813 s.

`Cc1nc(-c2cc(S(=O)(=O)N3CCN(c4ccccc4F)CC3)c(C)s2)cs1` returned an RP-LC retention time of 1210 s.

Molecule `Cc1oc(-c2ccc(Cl)cc2)nc1COc1cc(C)c2c(C)nn(C)c2n1` showed an RP-LC retention time of 1280 s.

On to `Cc1ccccc1NC(=O)CSc1nc(=O)n(CCN(C)C)c2c1CCC2`, for which the RP-LC retention time was found to be 610 s.

The molecule `CC(C)n1nnc2cc(C(=O)N(C)CC(=O)Nc3ccc(F)cc3)ccc21` had an RP-LC retention time of 726 s.

As to `Cc1cc(C)c(C)c(S(=O)(=O)N2CCn3c(nn(CC4CC4)c3=O)C2)c1C`, the RP-LC retention time stood at 943 s.

In turn, `CCCc1c(C(=O)OCC)cnc2nc(-c3ccccc3)nn12` showed an RP-LC retention time of 1120 s.

For the molecule `C=CCNC(=O)c1cn(-c2ccc(-c3nc(C(C)(C)C)no3)cn2)cn1`, the RP-LC retention time was 883 s.

Molecule `CC1=C(c2ccccc2)C=NNCC1=O` registered an RP-LC retention time of 733 s.

Molecule `CCn1cc(C(=O)Nc2ccc(F)cc2)c2cccnc21` displayed an RP-LC retention time of 824 s.

For the molecule `COc1ccc(-c2ncc3c(n2)CCN(S(=O)(=O)Cc2ccccc2)C3)cc1`, the RP-LC retention time was 976 s.

The record behind these values is the METLIN SMRT retention time set (Domingo-Almenara et al. 2019).
